Results on one compound are retold here after US20150231109A1, “COMBINATIONS (CATECHINS AND METHOTREXATE) FOR USE IN THE TREATMENT OF MELANOMAS” (UNIVERSIDAD DE MURCIA, priority 2012, published 2015).

The test system of one series is MCF7. In words: HPLC/MS/MS intracellular levels of MTX in MCF7. Format: cell-based. The conditions noted are these: MCF7, same MTX treatment (24 h, 1 μM).
In series [1] the test system is MITF. Put plainly: ChIP assay, occupancy of MITF on TYR and Pmel17 genes in SK-MEL-28 cells. Format: cell-based. The conditions noted are these: Homo sapiens, SK-MEL-28, MTX 4 h.
Method: The ChIP assay was performed with the Magna ChIP™ G kit from Millipore according to the manufacturer's instructions. […] The cross-linked chromatin was then used for immunoprecipitation with MITF antibody, HDAC3 antibody (positive control) or mouse IgG (negative control). DNA from lysates prior to immunoprecipitation was used as positive input controls.
The test system of series [2] is MITF. In words: MITF mRNA and protein expression (RT-PCR, western blot, immunofluorescence) in melanoma cell lines. The class given is cell-based. The conditions noted are these: MTX 1 μM; mouse (B16/F10) and human (SK-MEL-28, G361, A375) cell lines.
Method: mRNA extraction, cDNA synthesis, and conventional and qRT-PCR were performed under standard conditions. Primers were designed using Primer Express version 2.0 software (Applied Biosystems, Foster City, Calif.) and synthesized by Invitrogen (Barcelona, Spain).
Whole cell lysates were collected by adding SDS sample buffer. After extensive sonication, samples were boiled for 10 min and subjected to SDS-PAGE. Proteins were then transferred to nitrocellulose membranes and analyzed by immunoblotting (ECL Plus, GE Healthcare, Barcelona, Spain).
Confocal microscopy was carried out using a Leica TCS 4D confocal microscope (Wetzlar, Germany). For indirect immuno-fluorescence studies, preparation of the cells on glass slides were fixed with cold acetone for 5 min, and washed with PBS. The cells were incubated with 3% bovine serum albumin (BSA) for 20 min and then 2 h at room temperature with primary antibodies (diluted 1:200 in PBS containing 1% BSA) as described in each experiment. The cells were washed three times in PBS and incubated for 1 h at room temperature with Alexa Fluor Dyes (Invitrogen) as secondary antibodies. After 3 washes with PBS, the cells were incubated with 0.01% 4′-6-diamidino-2-phenylidene (DAPI; Sigma) in water for 5 min. […]
Another series concerns IGR39 cells. Put plainly: Matrigel Boyden chamber invasion assay, IGR39. The class given is cell-based. The conditions noted are these: IGR39, MTX 72 h, 1 μM. How it is done: FIGS. 1A-J. Methotrexate up-regulates the expression of MITF. A, The MITF rheostat, and the two-step strategy for melanoma therapy: Drug A induces MITF, driving cells to be sensitive to Drug B. B, MTX (1 μM) increases MITF mRNA determined using quantitative and conventional RT-PCR from indicated cell lines. […] C, MTX (1 μM) induces MITF protein assayed by western blotting (WB) (*P<0.05). D, Immunofluorescence of control or MTX-treated (3 h) 501 MEL cells using anti-MITF and DAPI. E, Matrigel assay of control and MTX-treated SKMEL-28 cells (48 h, 1 μM) and IGR39 (72 h, 1 μM) cells. […] Scale bar refers to all panels. F, Chromatin immunoprecipitation on TYR and Pmel17 genes of control and MTX-treated (4 h, 1 μM) SK-MEL-28 cells with qRT-PCR after immunoprecipitation with IgG, or MITF and HDAC3 antibodies. Error bars indicate standard deviations of triplicates; experiment reproduced four times with similar results. G, Scanning electron micrographs of control and MTX-treated (1 μM, 24 h) SK-MEL-28 cells. H, Semiquantitative RT PCR of TYR, TYRP1, Pmel17, MART1, and Rab27a mRNA. […]
Invasion assays were performed using a cell invasion assay kit (BD Bioscience). […] The invading cells were stained and quantified measuring the surface occupied by stained cells with a cell counter plug-in of the Image J software.

Series [3] is described as follows: Toxicology in non-tumor inoculated C57BL/6 mice. Format: in vivo, mouse. Here is the method:
FIGS. 4A-N. MTX and TMECG combination therapy is effective in vivo. A, A375 melanoma cells were included in a human reconstructed skin model and were treated with MTX (1 μM) and/or TMECG (10 μM) for 14 days. B, B16/F10 melanoma cells were injected subcutaneously into C57/B16 mice. Images show tumor size 17 days post-injection in control and treated mice. […] C, Luciferase imaging of control and MTX/TMECG-treated mice 12 days post-tumor cell injection. Beetle luciferin (120 mg/kg of mouse) was injected intraperitoneally. The values (means±s.d.) are representative of three independent experiments. *P=0.007; **P=0.002. D, Bioluminescent imaging of livers at 14 days post-intrasplenic injection of B16-F10-luc-G5 cells from untreated and MTX/TMECG-treated mice are shown. E, Quantification of macrometastases (0-10, 10-25 or >25) after treatment with vehicle (control), MTX (1 mg/kg/day), and/or TMECG (50 mg/kg/day). F, Photomicrograph of H&E-stained, 4 μm formalin-fixed, paraffin-embedded liver sections from control (DMSO) and MTX/TMECG-treated mice (1 and 50 mg/kg/day, respectively) (5× magnification). G, MTX activation of MITF and tyrosinase activates the melanoma-specific antifolate activity of TMECG, leading to depletion of cellular dTTP and apoptosis. H, Sections stained with hematoxylin and eosin show the effect of MTX/TMECG on B16/F10 primary splenic tumors. Xenograft tumors treated with DMSO (vehicle) or MTX/TMECG (1 mg/kg/day and 50 mg/kg/day, respectively) over 14-days. […] Representative images taken from two independent experiments (n=5 for each experiment). Scale bar=200 μm and is applicable to both panels. I, B16/F10 melanoma cells, expressing a luciferase reporter, were injected subcutaneously to mice. Mice were divided in two groups (n=7) and treated with vehicle (DMSO) or MTX/TMECG (1 mg/kg/day and 10 mg/kg/day, respectively) over 21-days. Then, tumors were pooled and dissociated. B16/F10 cells extracted from tumors were examined for their sensitivity to the MTX/TMECG combination (1 μM and 10 μM, respectively) using quantification of the luminescence signal (left panel). J, The histogram represents the number of B16/F10-luc2 cells remaining after 3 days of MTX/TMECG treatment with respect to vehicle treated controls (100%). […] K, The morphology of tumor dissociated B16/F10-luc2 cells before and after of MTX/TMECG treatment. Scale bar refers to all panels. L, Histograms represent the number of copies of TYR mRNA for every 1×10^3 copies of β-actin±SD of three independent experiments. […]
To explore the toxicity of TMECG and MTX, these agents (at indicated concentrations) were administrated intradermally to the back of non-tumor inoculated female C57BL/6 mice (n=10), and body weight monitored every other day. […]

The structures appear in SMILES notation. Where two headings read alike, the source gives them in different places.

For `CN(Cc1cnc2nc(N)nc(N)c2n1)c1ccc(C(=O)N[C@@H](CCC(=O)O)C(=O)O)cc1` [MTX, methotrexate], the “intracellular levels of MTX” value with MCF7 is 1.3 ± 0.4 pmol/106 cells. Besides, the receptor occupancy at 1 µM with MITF [1] (untreated cells 1.5%, read-out: occupancy of MITF on the TYR promoter with respect to an input control) stood at 25.2%; in the series with MITF [1] (untreated cells 5.4%, read-out: occupancy of MITF on the promoter/enhancer of the Pmel17 gene with respect to an input control) it was 45.4%. Further, the “MITF mRNA and protein” value in the series on MITF [2] is on record as “increased”. For the same compound, the invasiveness entry in the series on IGR39 cells is reported as “eliminated invasiveness”. The mouse body weight entry in series [3] (MTX 10 mg/kg/day) is on record as “induced some weight loss”; in series [3] (MTX alone 1 mg/Kg/day) it was “no effect”.
